According to patent US8415310B2, “Isoxazoline derivatives as antiparasitic agents” (AH USA 42 LLC, priority 2010, dated 2013):

Key:
[1] = test system: Ctenocephalides felis; assay: Flea (Ctenocephalides felis) Membrane Feed Assay-Adult; assay type: in vivo
Procedure: Flea (Ctenocephalides felis) Membrane Feed Assay-Adult
Comparative Data: Flea Feed Assay
Comparator compounds T1 and T2 were tested in the flea feed assay, as described above, and are compared to Examples 39 and 43, respectively. The compounds T1 (WO2008/122375) and T2 (US2009/0156643) represent the closet exemplified art. The data represents the 24 hour time period. Endpoint data were recorded as an lethal dose 90% (LD^90) in μg/mL. […] Comparator compounds T1 and T2 both had LD^90 values of >30 […].

[2] = test system: Lepeophtheirus salmonis; assay: Copepod (Lepeophtheirus salmonis) BioAssay; assay type: in vivo; conditions: pre-adult/adult salmon lice exposed for 24 hours in sea water
Procedure: Copepod (Lepeophtheirus salmonis) BioAssay
Two Formula (1) compounds were dissolved in sea water. Negative control was sea water and positive control was emamectin benzoate. Ten pre-adult/adult salmon lice were exposed for 24 hours. Lice were monitored for motility and endpoint data was recorded as an Effective Concentration 100% (EC^100) based on immotility.

[3] = comparative data, flea feed assay, 24 hour time period

Row | Structure (SMILES) | lethal dose 90% (LD^90) [1, 3] [µg/mL] | Effective Concentration 100% (EC^100) based on immotility [2] [ppb] | further results
1 | CC(=O)N1CC(F)(c2ccc(C3=NOC(c4cc(Cl)cc(Cl)c4)(C(F)(F)F)C3)cc2)C1 (centres unmarked) [Example 39, 1-(3-(4-(5-(3,5-Dichlorophenyl)-5-(trifluoromethyl)-4,5-dihydroisoxazol-3-yl)phenyl)-3-fluoroazetidin-1-yl)ethanone] | ≤ 3 | – | –
2 | O=C(CC(F)(F)F)N1CC(F)(c2ccc(C3=NOC(c4cc(Cl)c(F)c(Cl)c4)(C(F)(F)F)C3)cc2)C1 (racemic) [Example 19, 1-(3-(4-(5-(3,5-dichloro-4-fluorophenyl)-5-(trifluoromethyl)-4,5-dihydroisoxazol-3-yl)phenyl)-3-fluoroazetidin-1-yl)-3,3,3-trifluoropropan-1-one] | – | 50 | –
3 | CC(C)C(=O)N1CC(F)(c2ccc(C3=NOC(c4cc(Cl)c(F)c(Cl)c4)(C(F)(F)F)C3)cc2)C1 (single isomer, unassigned) [Example 177, 5-(3,5-dichloro-4-fluorophenyl)-3-[4-(3-fluoro-1-isobutyrylazetidin-3-yl)phenyl]-5-(trifluoromethyl)-4,5-dihydroisoxazole] | – | 50 | –
4 | O=C(NC1CC1)N1CC(F)(c2ccc(C3=NOC(c4cc(Cl)cc(Cl)c4)(C(F)(F)F)C3)cc2)C1 (centres unmarked) [Example 10, N-cyclopropyl-3-(4-(5-(3,5-dichlorophenyl)-5-(trifluoromethyl)-4,5-dihydroisoxazol-3-yl)phenyl)-3-fluoroazetidine-1-carboxamide] | – | – | lethal dose 90% (LD^90) ([1]; adult fleas fed on treated citrated bovine blood approximately 2 hours, knockdown and/or death at approximately 2 and 24 hours): ≤ 0.03 µg/mL
5 | O=C(CC(F)(F)F)N1CC(F)(c2ccc(C3=NOC(c4cc(Cl)cc(Cl)c4)(C(F)(F)F)C3)cc2)C1 (centres unmarked) [Example 43, 1-(3-(4-(5-(3,5-Dichlorophenyl)-5-(trifluoromethyl)-4,5-dihydroisoxazol-3-yl)phenyl)-3-fluoroazetidin-1-yl)-3,3,3-trifluoropropan-1-one] | ≤ 1 | – | –
